Measured values published in patent publication US20230146795A1, “ENHANCEMENT OF ANTI-TUMOR ACTIVITY OF SHP2 INHIBITOR PYRIMIDINONE IN COMBINATION WITH NOVEL CANCER MEDICINES IN CANCERS” (TAIHO PHARMACEUTICAL CO., LTD., priority 2020, published 2023).

Key:
Format in all cases: cell-based
RT4 = test: Anti-proliferation assay (CellTiter-Glo 2.0), combination index, RT4
Summary of the method: (§1)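 Cells were seeded at 500 cells/well in medium with 10% FBS and exposed to agents at 8 concentrations including 0 nM, for 3 days at 37° C under 5% CO2. Survival was read by CellTiter-Glo 2.0 luminescence, and combination index was determined at each combined concentration.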

NCI-H23 = test: Anti-proliferation assay (CellTiter-Glo 2.0), combination index, NCI-H23
Description: (§2) Cell lines were obtained from ATCC or Health Science Research Resources Bank.
Each cell lines were collected by ordinary method, then suspended in indicated medium containing 10% fetal bovine serum in table 3. The number of cells seeded per well was set to 500 cells/20 μL. […] The concentration of each anti-cancer reagents set to 8 concentrations including 0 nM. After adding the medicine to the cells, the cells were further incubated at 37° C. for 3 days under 5% CO2. Cell survival rates were calculated by adding 20 μL of CellTiter-Glo(registered trademark) 2. 0 (Promega) solution to each well, incubating the cells at room temperature for 10 minutes, and then measuring the chemiluminescence intensity of each well using a plate reader (ARVO).
(§3) A combination index (CI) value at each combined concentration of the medicines was determined.

RMG-I = test: Anti-proliferation assay (CellTiter-Glo 2.0), combination index, RMG-I
Description: as §2
384 well culture plate (781086, Greiner Bio-One International) was used for cell survival rate measurement assay. Each cell lines were collected by ordinary method, then suspended in indicated medium containing 10% fetal bovine serum in table 3. The number of cells seeded per well was set to 500 cells/20 μL. After incubation at 37° C. for 24 hours under 5% CO2, Compound 1 and additional compound having an antitumor effect or a vehicle (DMSO) was added to each well by using D300e Digital Dispenser (Tecan). The concentration of Compound 1 was set to 10 concentrations. The concentration of each anti-cancer reagents set to 8 concentrations including 0 nM. After adding the medicine to the cells, the cells were further incubated at 37° C. for 3 days under 5% CO2. Cell survival rates were calculated by adding 20 μL of CellTiter-Glo(registered trademark) 2. 0 (Promega) solution to each well, incubating the cells at room temperature for 10 minutes, and then measuring the chemiluminescence intensity of each well using a plate reader (ARVO).
as §3

NCI-H358 = test: Anti-proliferation assay (CellTiter-Glo 2.0), combination index, NCI-H358
Summary of the method: as §1

MV-4-11 = test: Anti-proliferation assay (CellTiter-Glo 2.0), combination index, MV-4-11
Summary of the method: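 Cells were seeded at 500/well in 10% FBS medium and grown 24 h at 37°C before dosing. Compound 1 (10 concentrations) was combined with a second antitumor agent (8 concentrations including 0 nM) for 3 days. Viability was read by CellTiter-Glo 2.0 luminescence, and a combination index was calculated at each concentration pair.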

[1] = Compound 1 4.57 + combination drug 111 nmol/L (1:24)
[2] = Compound 1 13.7 + combination drug 333 nmol/L (1:24)
[3] = Compound 1 41.2 + combination drug 1000 nmol/L (1:24)
[4] = Compound 1 41.2 + combination drug 111 nmol/L (1:2.7)
[5] = Compound 1 123 + combination drug 333 nmol/L (1:2.7)
[6] = Compound 1 370 + combination drug 1000 nmol/L (1:2.7)
[7] = Compound 1 1110 + combination drug 3000 nmol/L (1:2.7)
[8] = Compound 1 13.7 + combination drug 111 nmol/L (1:8.1)
[9] = Compound 1 41.2 + combination drug 333 nmol/L (1:8.1)
[10] = Compound 1 123 + combination drug 1000 nmol/L (1:8.1)
[11] = Compound 1 1.52 + combination drug 4.12 nmol/L (1:2.7)
[12] = Compound 1 13.7 + combination drug 37.0 nmol/L (1:2.7)

## COc1cc(N2CCC(N3CCN(C)CC3)CC2)ccc1Nc1ncc(Cl)c(Nc2ccccc2P(C)(C)=O)n1 [Brigatinib]
RT4; [1]
  CI: 0.536
  Fa: 0.2537
RT4; [2]
  CI: 0.558
  Fa: 0.3969
RT4; [3]
  CI: 0.459
  Fa: 0.6106
RT4; Compound 1:combination drug molar ratio 1:24
  Description (combinatory effect by CI): Synergy (0.3-0.7)
NCI-H23; [4]
  CI: 0.689
  Fa: 0.0998
NCI-H23; [5]
  CI: 0.353
  Fa: 0.2711
NCI-H23; [6]
  CI: 0.447
  Fa: 0.5739
NCI-H23; [7]
  CI: 0.614
  Fa: 0.8319
NCI-H23; Compound 1:combination drug molar ratio 1:2.7
  Description (combinatory effect by CI): Synergy (0.3-0.7)
RMG-I; [8]
  CI: 0.462
  Fa: 0.2251
RMG-I; [9]
  CI: 0.493
  Fa: 0.4905
RMG-I; [10]
  CI: 0.963
  Fa: 0.6133
RMG-I; Compound 1:combination drug molar ratio 1:8.1
  Description (combinatory effect by CI): Synergy (0.3-0.7)
NCI-H358; [4]
  CI: 0.885
  Fa: 0.3039
NCI-H358; [5]
  CI: 0.293
  Fa: 0.6017
NCI-H358; [6]
  CI: 0.506
  Fa: 0.7788
NCI-H358; [7]
  CI: 0.871
  Fa: 0.9063
MV-4-11; [11]
  CI: 0.844
  Fa: 0.3537
MV-4-11; [12]
  CI: 0.430
  Fa: 0.8161
MV-4-11; [4]
  CI: 0.286
  Fa: 0.9418
MV-4-11; [5]
  CI: 0.503
  Fa: 0.9637
MV-4-11; [6]
  CI: 0.933
  Fa: 0.9768
MV-4-11; [7]
  CI: 0.966
  Fa: 0.9918
